Results reported in the supplement of paper PMC4862054.

Legend:
Assay in all cases: normalised viability (% of control), CellTiter-Blue; higher = more viable cells (about 100 = DMSO control)
Conditions in all cases: incubation time: 72 h
[1] = system: DU-4475
Outline: (§1)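 Breast cancer cell lines were treated for 72 h in 384-well format and measured by CellTiter-Blue fluorescence at 560/590 nm. Results were normalised per plate to vehicle (100) and a positive kill control (0). The entry is normalised viability at a single listed concentration of the series.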

[2] = system: CAL-148
Outline: as §1

[3] = system: CAL-51
Outline: as §1

[4] = system: MDA-MB-231
Outline: as §1

[5] = system: HCC1599
Outline: as §1

[6] = system: HCC1937
Outline: as §1

[7] = system: BT-549
Outline: as §1

[8] = system: MFM-223
Outline: as §1

[9] = system: HCC1143
Outline: as §1

[10] = system: MDA-MB-436
Outline: as §1

[11] = system: CAL-120
Outline: as §1

[12] = system: DU-4475; remark: listed apart in the source
Outline: as §1

[13] = system: CAL-148; remark: listed apart in the source
Outline: as §1

[14] = system: CAL-51; remark: listed apart in the source
Outline: as §1

[15] = system: HDQ-P1
Outline: as §1

[16] = system: HCC1599; remark: listed apart in the source
Outline: as §1

[17] = system: HCC1937; remark: listed apart in the source
Outline: as §1

[18] = system: BT-549; remark: listed apart in the source
Outline: as §1

[19] = system: Hs578T
Outline: as §1

[20] = system: MFM-223; remark: listed apart in the source
Outline: as §1

[21] = system: BT-474
Outline: as §1

[22] = system: CAL-85-1
Outline: as §1

[23] = system: HCC1143; remark: listed apart in the source
Outline: as §1

[24] = system: SK-BR-3
Outline: as §1

[25] = system: MDA-MB-453
Outline: as §1

[26] = system: MDA-MB-436; remark: listed apart in the source
Outline: as §1

[27] = system: MDA-MB-468
Outline: as §1

COc1cc(Nc2ncc(F)c(Nc3ccc4c(n3)NC(=O)C(C)(C)O4)n2)cc(OC)c1OC [R406]
Conditions | normalised viability [%]
[1], 10 nM | 122
[2], 10 nM | 91.2
[3], 10 nM | 107
[4], 100 nM | 102
[5], 100 nM | 102
[6], 100 nM | 125
[7], 100 nM | 105
[8], 100 nM | 96.4
[9], 100 nM | 84.4
[10], 100 nM | 96.1
[11], 10 nM | 90.6
[11], 1000 nM | 91.3
[11], 10000 nM | 80.5
[12], 3 nM | 96.4
[12], 30 nM | 85.1
[12], 100 nM | 91.5
[13], 3 nM | 95.3
[13], 30 nM | 100
[13], 100 nM | 97.7
[14], 3 nM | 107
[14], 30 nM | 107
[14], 100 nM | 107
[15], 3 nM | 111
[15], 30 nM | 93.7
[15], 100 nM | 99.5
[16], 10 nM | 105
[16], 1000 nM | 112
[16], 10000 nM | 104
[17], 10 nM | 105
[17], 1000 nM | 98.2
[17], 10000 nM | 86
[18], 10 nM | 89.7
[18], 1000 nM | 77.3
[18], 10000 nM | 53
[19], 10 nM | 115
[19], 1000 nM | 105
[19], 10000 nM | 88.4
[20], 10 nM | 92.4
[20], 1000 nM | 89.5
[20], 10000 nM | 85.4
[21], 10 nM | 133
[21], 1000 nM | 111
[21], 10000 nM | 130
[22], 3 nM | 93.8
[22], 30 nM | 87.8
[22], 100 nM | 97.5
[23], 10 nM | 81.2
[23], 1000 nM | 83.5
[23], 10000 nM | 84.4
[24], 10 nM | 104
[24], 1000 nM | 98.3
[24], 10000 nM | 112
[25], 3 nM | 119
[25], 30 nM | 102
[25], 100 nM | 108
[26], 10 nM | 84.3
[26], 1000 nM | 102
[26], 10000 nM | 101
[27], 10 nM | 104
[27], 1000 nM | 87.3
[27], 10000 nM | 101

O=C(c1ccc(OCCN2CCCCC2)cc1)c1c(-c2ccc(O)cc2)sc2cc(O)ccc12 [Raloxifene]
Conditions | normalised viability [%]
[1], 10 nM | 105
[2], 10 nM | 100
[3], 10 nM | 99.6
[4], 100 nM | 89.3
[5], 100 nM | 104
[6], 100 nM | 110
[7], 100 nM | 87.2
[8], 100 nM | 84.3
[9], 100 nM | 109
[10], 100 nM | 107
[11], 10 nM | 99.6
[11], 1000 nM | 98.2
[11], 10000 nM | 91.8
[12], 3 nM | 105
[12], 30 nM | 108
[12], 100 nM | 104
[13], 3 nM | 95.2
[13], 30 nM | 98.6
[13], 100 nM | 93.8
[14], 3 nM | 102
[14], 30 nM | 99.7
[14], 100 nM | 93.7
[15], 3 nM | 90.2
[15], 30 nM | 97.5
[15], 100 nM | 107
[16], 10 nM | 95.7
[16], 1000 nM | 103
[16], 10000 nM | 102
[17], 10 nM | 89.3
[17], 1000 nM | 93.3
[17], 10000 nM | 96.2
[18], 10 nM | 77.5
[18], 1000 nM | 101
[18], 10000 nM | 56.8
[19], 10 nM | 112
[19], 1000 nM | 102
[19], 10000 nM | 92.8
[20], 10 nM | 99.8
[20], 1000 nM | 86.2
[20], 10000 nM | 80.6
[21], 10 nM | 100
[21], 1000 nM | 103
[21], 10000 nM | 113
[22], 3 nM | 100
[22], 30 nM | 94.5
[22], 100 nM | 98
[23], 10 nM | 114
[23], 1000 nM | 98.7
[23], 10000 nM | 96.8
[24], 10 nM | 94
[24], 1000 nM | 94.7
[24], 10000 nM | 103
[25], 3 nM | 106
[25], 30 nM | 97.5
[25], 100 nM | 92.4
[26], 10 nM | 104
[26], 1000 nM | 86.3
[26], 10000 nM | 76.2
[27], 10 nM | 98.6
[27], 1000 nM | 106
[27], 10000 nM | 78.2

Cn1c(=O)c(F)c(Nc2ccc(I)cc2F)c2c(=O)n(C[C@@H](O)CO)cnc21 [TAK-733]
Conditions | normalised viability [%]
[1], 1 nM | 98
[2], 1 nM | 92.6
[3], 1 nM | 103
[4], 10 nM | 54.9
[5], 10 nM | 86.2
[6], 10 nM | 100
[7], 10 nM | 97.4
[8], 10 nM | 80.3
[9], 10 nM | 77
[10], 10 nM | 100
[11], 1 nM | 92.4
[11], 100 nM | 74.7
[11], 1000 nM | 56.3
[12], 0.3 nM | 84.7
[12], 3 nM | 56.7
[12], 10 nM | 15.3
[13], 0.3 nM | 95
[13], 3 nM | 99.5
[13], 10 nM | 99.5
[14], 0.3 nM | 107
[14], 3 nM | 88.7
[14], 10 nM | 90.1
[15], 0.3 nM | 113
[15], 3 nM | 118
[15], 10 nM | 91.6
[16], 1 nM | 94.8
[16], 100 nM | 74.6
[16], 1000 nM | 70.5
[17], 1 nM | 121
[17], 100 nM | 104
[17], 1000 nM | 74
[18], 1 nM | 92
[18], 100 nM | 81.8
[18], 1000 nM | 103
[19], 1 nM | 108
[19], 100 nM | 88.3
[19], 1000 nM | 77.5
[20], 1 nM | 90.4
[20], 100 nM | 79.8
[20], 1000 nM | 64.5
[21], 1 nM | 123
[21], 100 nM | 121
[21], 1000 nM | 131
[22], 0.3 nM | 93.5
[22], 3 nM | 97.8
[22], 10 nM | 96.1
[23], 1 nM | 94.1
[23], 100 nM | 68.6
[23], 1000 nM | 56.4
[24], 1 nM | 106
[24], 100 nM | 102
[24], 1000 nM | 112
[25], 0.3 nM | 114
[25], 3 nM | 104
[25], 10 nM | 115
[26], 1 nM | 112
[26], 100 nM | 84.1
[26], 1000 nM | 88.9
[27], 1 nM | 99.4
[27], 100 nM | 84.6
[27], 1000 nM | 95
